Experiments:
sperm [1] = assay: Post thaw motility and percent intact acrosomes of sex sorted, frozen-thawed sperm (Example 1); assay type: cell-based, bovine; conditions: average over all bulls; for Motility Average 3 Hour: post thaw 3 hours, treatments as E1
Experimental: Sperm was collected from 10 different bulls on a routine collection schedule using an artificial vagina over the course of 4 days. The 10 bulls included both Jersey bulls and Holstein bulls. All ejaculates contained greater than 60% progressive motility and greater than 70% morphological normal sperm. Antibiotics were added within 15 minutes of collection.
Red food dye treatment 40%—A reduced volume of red food dye No. 40 control was established. Sperm was diluted to 160×10^6 sperm per ml in a modified TALP buffer, as described in Table 1, at a pH of 7.4. Samples collected from Jersey bulls were incubated with 16 μl of Hoechst 33342 per 2 ml of sample for between 45 and 60 minutes at 34° C., while samples collected from Holstein bulls were incubated 17 μl of Hoechst 33342 per 2 ml of sample for between 45 and 60 minutes at 34° C. After incubation an equal volume of a second modified TALP was added reducing the concentration to 80×10^6. The second modified TALP includes the components described in Table 1 with the addition of 4% egg yolk, 40 μM red food dye No. 40 (20 g/L) and the pH dropped to 5.5 with HCl.
Yellow food dye was included in a second group at an equal concentration. Sperm was diluted to 160×10^6 sperm per ml in a modified TALP buffer, as described in Table 1, at a pH of 7.4. Samples collected from Jersey bulls were incubated with 14 μl of Hoechst 33342 per 2 ml of sample for between 45 and 60 minutes at 34° C., while sample collected from Holstein bulls were incubated 15 μl of Hoechst 33342 per 2 ml of sample for between 45 and 60 minutes at 34° C. After incubation an equal volume of a second modified TALP was added reducing the concentration to 80×10^6. The second modified TALP includes the components described in Table 1 with the addition 4% egg yolk, […] yellow food dye No. 6 and a pH dropped to 5.5 with HCl. […]
Straws were thawed the following day for motility measurements at 0 hour and 3 hours. Percent intact acrosomes were measured as well, and the overall averages over all bulls on each day are illustrated in Table 3. […]

sperm [2] = assay: Split quality, phenol red as added split enhancing dye (Example 8); assay type: cell-based, bulls (Jersey, Holstein)
Experimental: Two bulls were collected for the Example 8. The Bull 1 was a Jersey bulls and Bull 2 was a Holstein collected substantially in the manner described in example 1. Sperm from Bull 1 extended to 160 million per with a first buffer, (TALP described in table 1 at a pH 7.4) and divided into two groups for staining. The first group was stained with 44 μM Hoechst 33342 and the second group was stained with 60 μM Hoechst 33342. Similarly, bull 2 was suspended to 160 million per mL the first buffer, (TALP described in table 1 at a pH 7.4) and divided into three groups for staining. The first group was stained with 28 μM Hoechst 33342 and the second group was stained with 44 μM Hoechst 33342 and the third group was stained with 66 μM Hoechst 33342. Each group was incubated for 1 hour at 34° C. and then extended in an equal volume of the second buffer. […] The stained samples were each treated with a variety of quenching dyes and combinations of quenching dyes indicated in below. […] After calibration, screen shots of sorting histograms were taken and histograms split quality was measured as a peak to valley ratio in the same way described in Example 5 with reference to FIG. 4 and the resulting data is found in Table 16.

sperm [3] = assay: Split quality, dead quenching dye combined with split enhancing dye (Example 7); assay type: cell-based, Jersey bull
Experimental: A single Jersey bull was collected at an initial sperm concentration 1810×10^6 sperm/ml in a volume of 3.9 ml. […] Samples were split into two equal aliquots and in one of each pair of samples, a stock solution of phenol red was added to make a final phenol red concentration of 620 μM. […] At each concentration, one control was compared to the addition of phenol red as a split enhancing dye at a concentration of 620 μM. Sorting was performed on a MoFlo SX (Beckman Coulter, USA) in substantially the same manner described in Example 5. After calibration, screen shots of sorting histograms were taken and split quality was measured by the peak to valley ration in the same way described in Example 5. The resulting data is found in Table 15.

## O=S(=O)([O-])c1ccc(N=Nc2c(O)ccc3cc(S(=O)(=O)[O-])ccc23)cc1.[Na+].[Na+] [Yellow 6, Disodium 6-hydroxy-5[(4-sulfophenyl)azo]-2-naphthalenesulfononate]
Sperm [1]; post thaw 0 hour, Red = red food dye No. 40 treatment 40% (16-17 μl Hoechst 33342/2 ml), Yellow = yellow food dye No. 6 (14-15 μl)
  Motility Average 0 Hour: 57.7%
Sperm [1]
  Motility Average 3 Hour: 49.0%
Sperm [2]; Bull 1, Hoechst 33342 44 μM, R40 0, Y6 50 μM, PR 0
  PV: 1.20
Sperm [3]; 150 million cells per mL, Yellow 6 62 μM, Phenol Red 0 μM
  Height of Peak Divided by Height of Valley: 1.30

## COc1cc(S(=O)(=O)O)c(C)cc1N=Nc1c(O)ccc2cc(S(=O)(=O)O)ccc12 [Red 40, 6-hydroxy-5-[(2-methoxy-5-methyl-4-sulfophenyl)azo]-2-naphthalenesulfonic acid, reference compound]
Sperm [1]
  Motility Average 3 Hour: 47.0%

## O=S1(=O)OC(c2ccc(O)cc2)(c2ccc(O)cc2)c2ccccc21 [Phenol Red, phenolsulfonphthalein]
Sperm [2]; each Hoechst staining level, with Red 40 or Yellow 6
  effect of adding phenol red on split quality: always improved split quality
Sperm [3]; phenol red 620 μM with yellow food dye No. 6 62 μM, each sperm concentration tested
  peak quality of combination versus dead quencher alone: gives better peak quality

Reference: patent publication US9581587B2, “Sperm staining and sorting methods” (INGURAN, LLC, priority 2011, dated 2017)
